From PMC3259047 (Molecular Neurodegeneration, 2011)
Read-outs that look alike come from different tables or passages of the source.

Legend:
[1] = target: CAA deposits (cerebrovascular Aβ aggregates) (Homo sapiens, UniProt P05067); experiment: In situ saturation binding assay in fixed Tg2576 brain sections, fluorescence on CAA; parameters: species or system Tg2576 mice; settings: 16 month-old Tg2576 fixed brain sections, intrinsic fluorescence, 30 min room temperature; read-out: Amyloid binding affinity (KD) on CAA (converted)
Chain of CAA deposits (cerebrovascular Aβ aggregates) (P05067 672-711 limits assumed): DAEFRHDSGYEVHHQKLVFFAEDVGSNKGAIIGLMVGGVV
Experimental: (§1) Figure 5 In situ binding assay in Tg2576 brain sections. Sixteen month-old Tg2576 mice were perfused with PBS and brains were post-fixed in 4% paraformaldehyde. Coronal brain sections (40 μm thick) were washed three times with PBS and incubated with various concentrations of test compounds (4 sections/concentration; 6 concentrations/compound) at room temperature for 30 min. Brain sections were washed twice with PBS and 50% ethanol in PBS then cover-slipped. […] Scale bar: 100 μm. Fluorescent images of the sensorimotor cortex were taken and the fluorescent intensity on CAA (B) and neuritic plaques (C) was quantified. Saturation binding curves were plotted to obtain the binding affinity (KD) values (see Table 2).

[2] = tested on: cerebrovascular Aβ deposits and neuritic plaques; experiment: Fluorescent staining of fixed aged Tg2576 brain sections; assay type: binding; settings: fixed brain sections of aged Tg2576 mice; 1 μM resorufin, 2 μM methoxy-X34
Experimental: Scale bars in A-D: 100 μm.
Tg2576 and littermate wild-type mice at 12-16 months of age were anesthetized with isoflurane and transcardially perfused with PBS. Brains were removed, post-fixed overnight in 4% paraformaldehyde in 0.1 M phosphate buffer (pH 7.4) at 4°C, and preserved in 30% sucrose in 0.1 M phosphate buffer at 4°C. Brains were sectioned coronally (40 μm) on a freezing sliding microtome as described previously. […] Brain sections were washed three times with PBS and once with 50% ethanol in PBS for 5 min each. After three more PBS washes, brain sections were mounted on a slide glass and cover-slipped with Vectashield mounting media (Vector laboratories, Burlingame, CA). Fluorescent staining was visualized using a Nikon Eclipse ME600 digital video microscopy system (Nikon Instruments Inc., Melville, NY) and MetaMorph imaging software (Molecular Devices, Sunnyvale, CA). Cross-sectional area covered by CAA vessels and parenchymal plaques were quantified using ImageJ software (National Institutes of Health, Bethesda, MD) as previously described.

[3] = Octanol-water partition coefficient (logPoct) by fluorometry; assay type: physicochemical; settings: n-octanol/distilled water, 100 μM, room temperature, mean ± S.E.M, three independent experiments
Experimental: Octanol-water partition coefficients (logPoct) were determined as described previously with modification. […] The samples were incubated at room temperature with a brief vortex every 5 min for 60 minutes. After centrifugation at 2,000 g for 10 min, octanol and water layers were separately transferred to microcentrifuge tubes. Concentrations were determined by fluorometry at an excitation wave length of 530/25 nm and an emission wave length of 590/30 nm using an ELISA reader (Biotek, Winooski, VT).

[4] = target: T1, neuritic plaques (Homo sapiens, UniProt P05067); experiment: In situ saturation binding assay in fixed Tg2576 brain sections, fluorescence on neuritic plaques; parameters: species or system Tg2576 mice; settings: 16 month-old Tg2576 fixed brain sections, intrinsic fluorescence, 30 min room temperature; read-out: Amyloid binding affinity (KD) on neuritic plaques
T1 construct: Aβ1-42 (the predominant species in neuritic plaques); from tissue; host or cells: brain of 16-month-old Tg2576 transgenic mice
T1 sequence (P05067 672-713 limits assumed): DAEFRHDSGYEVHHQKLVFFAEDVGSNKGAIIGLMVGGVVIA
Experimental: as §1

[5] = parameters: method as in Klunk et. al. [51]; settings: ref Klunk et. al. [51]; cited from earlier work
[6] = tested on: CAA deposits
[7] = tested on: 3D6-positive cerebral arterioles and neuritic plaques; experiment: Fluorescent staining of paraffin-embedded human AD brain sections (3D6 co-labeling); assay type: binding; settings: human AD cortical sections, 1 μM resorufin
[8] = tested on: CAA amyloid deposits and neuritic plaques; experiment: In vivo live imaging through closed cranial window in aged Tg2576 mice; settings: 6 mg/kg i.p. per legend and methods

Kd [1]	logPoct [3]	Kd [4]	logP [3]	Crossing of the BBB ([6]; mouse, in vivo)	Compound	Binding to CAA-laden vessels versus neuritic plaques (fluorescent staining) [2]	logPoct ([3]; listed as benzyloxy-resorufin)	logPoct [5]	Visualization of CAA deposits after intravenous administration ([6]; i.v. up to 50 mg/kg, aged Tg2576 mice (15 mo))	Staining of 3D6-positive amyloid deposits [7]	Live fluorescent labeling of amyloid deposits by methoxy-X04 [8]
247 ± 135 nM	1.94	> 10000 nM	1.94 ± 0.137	–	CCOc1ccc2nc3ccc(=O)cc-3oc2c1 [Ethoxyresorufin, ethoxy-resorufin]	preferentially bound CAA-laden vessels but not neuritic plaques	–	–	–	–	–
325 nM	–	219 nM	–	–	COc1cc(C=Cc2ccc(O)c(C(=O)O)c2)ccc1C=Cc1ccc(O)c(C(=O)O)c1 [Methoxy-X34, reference compound]	visualized both cerebrovascular Aβ deposits and neuritic plaques	–	0.19	–	–	–
–	0.43	–	0.427 ± 0.036	failed to cross the BBB	O=c1ccc2nc3ccc(O)cc3oc-2c1 [Resorufin, 7-hydroxy-3H-phenoxazin-3-one]	strongly bind CAA-laden cerebral arterioles but not parenchymal neuritic plaques	–	–	failed to visualize CAA deposits	marked resorufin-positive staining was noted in the 3D6-positive cerebral arterioles	–
–	–	–	–	–	COc1cc(/C=C/c2ccc(O)cc2)ccc1/C=C/c1ccc(O)cc1 [methoxy-X04]	–	–	–	–	–	labeled Aβ aggregates in both cerebral arteries and parenchymal neuritic plaques

Compound	Kd [1]	logPoct [3]	Kd [4]	logP [3]	Crossing of the BBB ([6]; mouse, in vivo)	Binding to CAA-laden vessels versus neuritic plaques (fluorescent staining) [2]	logPoct ([3]; listed as benzyloxy-resorufin)	logPoct [5]	Visualization of CAA deposits after intravenous administration ([6]; i.v. up to 50 mg/kg, aged Tg2576 mice (15 mo))	Staining of 3D6-positive amyloid deposits [7]	Live fluorescent labeling of amyloid deposits by methoxy-X04 [8]
O=c1ccc2nc3ccc(OCc4ccccc4)cc3oc-2c1 [Benzyloxyresorufin, benzyloxy-resorufin]	473 ± 82 nM	2.206 ± 0.104	> 10000 nM	–	–	preferentially bound CAA-laden vessels but not neuritic plaques	2.21	–	–	–	–
